Read-outs that look alike come from different tables or passages of the source. Starred links: 1 amine or outer side, 2 acyl side, 3 side chain; linkers in the order of their positions; H or OH if unused. Positions of bridges follow the written chain, without caps; N, C: chain ends. Non-standard residues stand in square brackets, D forms with d. Residues, ends and D or L forms follow the SMILES beside them. Groups on a side chain read outwards from the residue. *: point of attachment. Trp(1-CH2CO2Me) = COC(=O)Cn1cc(C[C@H](N)C(=O)O)c2ccccc21; Trp(1-CH2COOH) = N[C@@H](Cc1cn(CC(=O)O)c2ccccc12)C(=O)O; NH(benzothiophen-5-yl) = c1cc2cc(N*)ccc2s1; Hyp = O=C(O)[C@@H]1C[C@@H](O)CN1; X32 = c1ccc2c(c1)Cc1cc(N*)ccc1-2; X10 = S=C(Nc1ccc(N2CCOCC2)cc1)*; NMeNle = CCCC[C@H](NC)C(=O)O; X20 = O=C(Oc1ccc2ccccc2c1)*; NMeA = CN[C@@H](C)C(=O)O; Dab = NCC[C@H](N)C(=O)O; X45 = c1ccc2sc(N*)cc2c1; Dap = NC[C@H](N)C(=O)O; CO = O=C([*:1])[*:2]
Target: T1, PD-1/PD-L1 (Homo sapiens, UniProt Q9NZQ7)
T1 construct: TVMV protease site linker (C); made in house; host or cells: HEK293T cells
T1 sequence (Q9NZQ7 18-239): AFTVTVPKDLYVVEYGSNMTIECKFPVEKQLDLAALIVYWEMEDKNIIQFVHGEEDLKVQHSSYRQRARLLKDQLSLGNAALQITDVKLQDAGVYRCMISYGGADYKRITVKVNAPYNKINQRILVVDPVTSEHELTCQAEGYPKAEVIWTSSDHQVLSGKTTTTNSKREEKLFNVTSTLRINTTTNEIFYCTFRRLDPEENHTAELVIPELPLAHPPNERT
Experiment: PD-1/PD-L1 Homogenous Time-Resolved Fluorescence (HTRF) binding assay
In short: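 Compounds preincubated 15 min with PD-L1-His (10 nM final), then PD-1-Ig (20 nM final) added for 15 min in dPBS with 0.1% BSA, 0.05% Tween-20. Detection by Eu-cryptate anti-Ig (1 nM) and APC anti-His (20 nM) HTRF.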

[1] = PD-L1-His 10 nM pre-incubated with inhibitor, PD-1-Ig 20 nM, read-out: HTRF IC50

| Structure (SMILES) | IC50 [1] | IC50 |
| --- | --- | --- |
| CCCC[C@H]1C(=O)N(C)[C@@H](CCCC)C(=O)N[C@@H](CC(C)C)C(=O)N[C@H](C(=O)NCC(N)=O)CSCC(=O)N[C@@H](Cc2ccc(O)cc2)C(=O)N(C)[C@@H](C)C(=O)N[C@@H](CC(N)=O)C(=O)N2CCC[C@H]2C(=O)N[C@@H](CNC(=O)Nc2ccc3c(c2)Cc2ccccc2-3)C(=O)N[C@@H](CC(C)C)C(=O)N2C[C@H](O)C[C@H]2C(=O)N[C@@H](Cc2c[nH]c3ccccc23)C(=O)N[C@@H](CCNC(=O)Nc2ccc3c(c2)Cc2ccccc2-3)C(=O)N[C@@H](Cc2cn(CC(=O)O)c3ccccc23)C(=O)N1C [Example 2008] ({CH2CO}-Y[NMeA]NP[Dap]([CO-X32])L[Hyp]W[Dab]([CO-X32])[Trp(1-CH2COOH)][NMeNle][NMeNle]LCG-NH2; thioether N-14) | – | 46.7 nM |
| CCCC[C@H]1C(=O)N(C)[C@@H](CCCC)C(=O)N[C@@H](CC(C)C)C(=O)N[C@H](C(=O)NCC(N)=O)CSCC(=O)N[C@@H](Cc2ccc(O)cc2)C(=O)N(C)[C@@H](C)C(=O)N[C@@H](CC(N)=O)C(=O)N2CCC[C@H]2C(=O)N[C@@H](CNC(=O)Oc2ccc3ccccc3c2)C(=O)N[C@@H](CC(C)C)C(=O)N2C[C@H](O)C[C@H]2C(=O)N[C@@H](Cc2c[nH]c3ccccc23)C(=O)N[C@@H](CCNC(=O)Oc2ccc3ccccc3c2)C(=O)N[C@@H](Cc2cn(CC(=O)O)c3ccccc23)C(=O)N1C [Example 3037] ({CH2CO}-Y[NMeA]NP[Dap](X20)L[Hyp]W[Dab](X20)[Trp(1-CH2COOH)][NMeNle][NMeNle]LCG-NH2; thioether N-14) | – | 5 nM |

More lines, main results first:

| IC50 [1] | Structure (SMILES) | IC50 |
| --- | --- | --- |
| 3.2 nM | CCCC[C@H]1C(=O)N(C)[C@@H](CCCC)C(=O)N[C@@H](CC(C)C)C(=O)N[C@H](C(=O)NCC(N)=O)CSCC(=O)N[C@@H](Cc2ccc(O)cc2)C(=O)N(C)[C@@H](C)C(=O)N[C@@H](CC(N)=O)C(=O)N2CCC[C@H]2C(=O)N[C@@H](CNC(=S)Nc2ccc(N3CCOCC3)cc2)C(=O)N[C@@H](CC(C)C)C(=O)N2C[C@H](O)C[C@H]2C(=O)N[C@@H](Cc2c[nH]c3ccccc23)C(=O)N[C@@H](CCN)C(=O)N[C@@H](Cc2cn(CC(=O)OC)c3ccccc23)C(=O)N1C [Example 1053] ({CH2CO}-Y[NMeA]NP[Dap](X10)L[Hyp]W[Dab][Trp(1-CH2CO2Me)][NMeNle][NMeNle]LCG-NH2; thioether N-14) | – |
| 5.6 nM | CCCC[C@H]1C(=O)N(C)[C@@H](CCCC)C(=O)N[C@@H](CC(C)C)C(=O)N[C@H](C(=O)NCC(N)=O)CSCC(=O)N[C@@H](Cc2ccc(O)cc2)C(=O)N(C)[C@@H](C)C(=O)N[C@@H](CC(N)=O)C(=O)N2CCC[C@H]2C(=O)N[C@@H](CN)C(=O)N[C@@H](CC(C)C)C(=O)N2C[C@H](O)C[C@H]2C(=O)N[C@@H](Cc2c[nH]c3ccccc23)C(=O)N[C@@H](CCNC(=O)Nc2cc3ccccc3s2)C(=O)N[C@@H](Cc2cn(CC(=O)O)c3ccccc23)C(=O)N1C [Example 3061] ({CH2CO}-Y[NMeA]NP[Dap]L[Hyp]W[Dab]([CO-X45])[Trp(1-CH2COOH)][NMeNle][NMeNle]LCG-NH2; thioether N-14) | – |
| 3.3 nM | CCCC[C@H]1C(=O)N(C)[C@@H](CCCC)C(=O)N[C@@H](CC(C)C)C(=O)N[C@H](C(=O)NCC(N)=O)CSCC(=O)N[C@@H](Cc2ccc(O)cc2)C(=O)N(C)[C@@H](C)C(=O)N[C@@H](CC(N)=O)C(=O)N2CCC[C@H]2C(=O)N[C@@H](CNC(=O)Nc2ccc3sccc3c2)C(=O)N[C@@H](CC(C)C)C(=O)N2C[C@H](O)C[C@H]2C(=O)N[C@@H](Cc2c[nH]c3ccccc23)C(=O)N[C@@H](CCN)C(=O)N[C@@H](Cc2cn(CC(=O)O)c3ccccc23)C(=O)N1C [Example 3026] ({CH2CO}-Y[NMeA]NP[Dap]([CO-NH(benzothiophen-5-yl)])L[Hyp]W[Dab][Trp(1-CH2COOH)][NMeNle][NMeNle]LCG-NH2; thioether N-14) | – |

— patent US20220389061A1, “IMMUNOMODULATORS” (priority 2019, published 2022)
